Like-named read-outs stand apart in the source and are kept apart here.
System: iCell cardiomyocytes (human iPSC-derived cardiomyocytes)
Assay: High-content imaging of cytotoxicity and mitochondrial integrity in iPSC-CMs
Assay type: cell-based
Details: Homo sapiens; for viability at 0.01 µM / activity at 0.01 µM / viability at 0.1 µM / activity at 0.1 µM / viability at 1 µM / activity at 1 µM / viability at 10 µM / activity at 10 µM / viability at 100 µM / activity at 100 µM: Cardiomyocyte, 0.00 µM = 100.00; for viability at 0.1 µM / activity at 0.1 µM: 0.10 µM; for minimal effective concentration: iPSC-CM
How it was run: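 Cardiomyocytes grown on gelatinized 384-well plates received fresh medium on the experiment day and were then exposed to chemicals at 0.01–100μM. Nuclei and mitochondria were labeled with Hoechst 33342 and MitoTracker™ Orange, then fixed, and imaged on an ImageXpress® Micro Confocal system. Four-parameter logistic concentration–response fits in R, with a one-standard-deviation vehicle cutoff, gave point-of-departure values.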

[1] = 1.5 h, read-out: cm.cam.90min POD
[2] = 1.5 h, read-out: cm.mii.90min POD
[3] = 1.5 h, read-out: cm.mito.90min POD
[4] = 1.5 h, read-out: cm.tc.90min POD
[5] = 24 h, read-out: cm.cam.24hrs POD
[6] = 24 h, read-out: cm.mii.24hrs POD
[7] = 24 h, read-out: cm.mito.24hrs POD
[8] = 24 h, read-out: cm.tc.24hrs POD

Oc1ccccc1-c1ccc(Cl)cc1 [2'-OH PCB3]
viability at 0.01 µM (1.5 h, read-out: cm.cam.90min): 104% | activity at 0.01 µM (1.5 h, read-out: cm.mii.90min): 111% | activity at 0.01 µM (1.5 h, read-out: cm.mito.90min): 104% | viability at 0.01 µM (1.5 h, read-out: cm.tc.90min): 104% | viability at 0.1 µM (1.5 h, read-out: cm.cam.90min): 95.6% | activity at 0.1 µM (1.5 h, read-out: cm.mii.90min): 113% | activity at 0.1 µM (1.5 h, read-out: cm.mito.90min): 95.6% | viability at 0.1 µM (1.5 h, read-out: cm.tc.90min): 95.6% | viability at 1 µM (1.5 h, read-out: cm.cam.90min): 101% | activity at 1 µM (1.5 h, read-out: cm.mii.90min): 101% | activity at 1 µM (1.5 h, read-out: cm.mito.90min): 101% | viability at 1 µM (1.5 h, read-out: cm.tc.90min): 101% | viability at 10 µM (1.5 h, read-out: cm.cam.90min): 102% | activity at 10 µM (1.5 h, read-out: cm.mii.90min): 92.5% | activity at 10 µM (1.5 h, read-out: cm.mito.90min): 102% | viability at 10 µM (1.5 h, read-out: cm.tc.90min): 102% | viability at 100 µM (1.5 h, read-out: cm.cam.90min): 0% | activity at 100 µM (1.5 h, read-out: cm.mii.90min): 32.7% | activity at 100 µM (1.5 h, read-out: cm.mito.90min): 0.07% | viability at 100 µM (1.5 h, read-out: cm.tc.90min): 0.07% | viability at 0.01 µM (24 h, read-out: cm.cam.24hrs): 95.1% | activity at 0.01 µM (24 h, read-out: cm.mii.24hrs): 98.5% | activity at 0.01 µM (24 h, read-out: cm.mito.24hrs): 92.6% | viability at 0.01 µM (24 h, read-out: cm.tc.24hrs): 94.5% | viability at 0.1 µM (24 h, read-out: cm.cam.24hrs): 94.5% | activity at 0.1 µM (24 h, read-out: cm.mii.24hrs): 96% | activity at 0.1 µM (24 h, read-out: cm.mito.24hrs): 91.2% | viability at 0.1 µM (24 h, read-out: cm.tc.24hrs): 94.3% | viability at 1 µM (24 h, read-out: cm.cam.24hrs): 99.7% | activity at 1 µM (24 h, read-out: cm.mii.24hrs): 98.3% | activity at 1 µM (24 h, read-out: cm.mito.24hrs): 96.7% | viability at 1 µM (24 h, read-out: cm.tc.24hrs): 99.8% | viability at 10 µM (24 h, read-out: cm.cam.24hrs): 103% | activity at 10 µM (24 h, read-out: cm.mii.24hrs): 74.7% | activity at 10 µM (24 h, read-out: cm.mito.24hrs): 104% | viability at 10 µM (24 h, read-out: cm.tc.24hrs): 103% | viability at 100 µM (24 h, read-out: cm.cam.24hrs): 0% | activity at 100 µM (24 h, read-out: cm.mii.24hrs): 0% | activity at 100 µM (24 h, read-out: cm.mito.24hrs): 0% | viability at 100 µM (24 h, read-out: cm.tc.24hrs): 0% | minimal effective concentration [1]: 32.8 µM | minimal effective concentration [2]: 9.15 µM | minimal effective concentration [3]: 41.4 µM | minimal effective concentration [4]: 34.5 µM | minimal effective concentration [5]: 40.4 µM | minimal effective concentration [6]: 6.56 µM | minimal effective concentration [7]: 29.8 µM | minimal effective concentration [8]: 35.9 µM

Oc1ccc(-c2cccc(Cl)c2)cc1Cl [4-OH PCB11]
viability at 0.01 µM (1.5 h, read-out: cm.cam.90min): 94.9% | activity at 0.01 µM (1.5 h, read-out: cm.mii.90min): 115% | activity at 0.01 µM (1.5 h, read-out: cm.mito.90min): 94.7% | viability at 0.01 µM (1.5 h, read-out: cm.tc.90min): 94.7% | viability at 0.1 µM (1.5 h, read-out: cm.cam.90min): 95% | activity at 0.1 µM (1.5 h, read-out: cm.mii.90min): 108% | activity at 0.1 µM (1.5 h, read-out: cm.mito.90min): 95% | viability at 0.1 µM (1.5 h, read-out: cm.tc.90min): 95% | viability at 1 µM (1.5 h, read-out: cm.cam.90min): 99.1% | activity at 1 µM (1.5 h, read-out: cm.mii.90min): 113% | activity at 1 µM (1.5 h, read-out: cm.mito.90min): 98.6% | viability at 1 µM (1.5 h, read-out: cm.tc.90min): 98.8% | viability at 10 µM (1.5 h, read-out: cm.cam.90min): 106% | activity at 10 µM (1.5 h, read-out: cm.mii.90min): 93.6% | activity at 10 µM (1.5 h, read-out: cm.mito.90min): 106% | viability at 10 µM (1.5 h, read-out: cm.tc.90min): 106% | viability at 100 µM (1.5 h, read-out: cm.cam.90min): 0.0234% | activity at 100 µM (1.5 h, read-out: cm.mii.90min): 157% | activity at 100 µM (1.5 h, read-out: cm.mito.90min): 0.0462% | viability at 100 µM (1.5 h, read-out: cm.tc.90min): 0.09% | viability at 0.01 µM (24 h, read-out: cm.cam.24hrs): 90.8% | activity at 0.01 µM (24 h, read-out: cm.mii.24hrs): 101% | activity at 0.01 µM (24 h, read-out: cm.mito.24hrs): 86.2% | viability at 0.01 µM (24 h, read-out: cm.tc.24hrs): 90.8% | viability at 0.1 µM (24 h, read-out: cm.cam.24hrs): 100% | activity at 0.1 µM (24 h, read-out: cm.mii.24hrs): 111% | activity at 0.1 µM (24 h, read-out: cm.mito.24hrs): 97.6% | viability at 0.1 µM (24 h, read-out: cm.tc.24hrs): 99.9% | viability at 1 µM (24 h, read-out: cm.cam.24hrs): 98.4% | activity at 1 µM (24 h, read-out: cm.mii.24hrs): 100% | activity at 1 µM (24 h, read-out: cm.mito.24hrs): 96.4% | viability at 1 µM (24 h, read-out: cm.tc.24hrs): 98.7% | viability at 10 µM (24 h, read-out: cm.cam.24hrs): 93.1% | activity at 10 µM (24 h, read-out: cm.mii.24hrs): 96.5% | activity at 10 µM (24 h, read-out: cm.mito.24hrs): 90.8% | viability at 10 µM (24 h, read-out: cm.tc.24hrs): 93.5% | viability at 100 µM (24 h, read-out: cm.cam.24hrs): 0.0471% | activity at 100 µM (24 h, read-out: cm.mii.24hrs): 1.84% | activity at 100 µM (24 h, read-out: cm.mito.24hrs): 0.024% | viability at 100 µM (24 h, read-out: cm.tc.24hrs): 0.11% | minimal effective concentration [1]: 27.7 µM | minimal effective concentration [2]: 32.7 µM | minimal effective concentration [3]: 40.1 µM | minimal effective concentration [4]: 36.2 µM | minimal effective concentration [5]: 8.57 µM | minimal effective concentration [6]: 43.2 µM | minimal effective concentration [7]: 7.94 µM | minimal effective concentration [8]: 8.62 µM
